Measurements as given in the Kinase Knowledgebase extract (Sharma et al. 2016).

What follows are molecules tested against PIK3CG (human) (UniProt P48736) (assay: Assessment of PIK3CG Kinase Activity).
PIK3CG (human), sequence (P48736 whole entry, looked up): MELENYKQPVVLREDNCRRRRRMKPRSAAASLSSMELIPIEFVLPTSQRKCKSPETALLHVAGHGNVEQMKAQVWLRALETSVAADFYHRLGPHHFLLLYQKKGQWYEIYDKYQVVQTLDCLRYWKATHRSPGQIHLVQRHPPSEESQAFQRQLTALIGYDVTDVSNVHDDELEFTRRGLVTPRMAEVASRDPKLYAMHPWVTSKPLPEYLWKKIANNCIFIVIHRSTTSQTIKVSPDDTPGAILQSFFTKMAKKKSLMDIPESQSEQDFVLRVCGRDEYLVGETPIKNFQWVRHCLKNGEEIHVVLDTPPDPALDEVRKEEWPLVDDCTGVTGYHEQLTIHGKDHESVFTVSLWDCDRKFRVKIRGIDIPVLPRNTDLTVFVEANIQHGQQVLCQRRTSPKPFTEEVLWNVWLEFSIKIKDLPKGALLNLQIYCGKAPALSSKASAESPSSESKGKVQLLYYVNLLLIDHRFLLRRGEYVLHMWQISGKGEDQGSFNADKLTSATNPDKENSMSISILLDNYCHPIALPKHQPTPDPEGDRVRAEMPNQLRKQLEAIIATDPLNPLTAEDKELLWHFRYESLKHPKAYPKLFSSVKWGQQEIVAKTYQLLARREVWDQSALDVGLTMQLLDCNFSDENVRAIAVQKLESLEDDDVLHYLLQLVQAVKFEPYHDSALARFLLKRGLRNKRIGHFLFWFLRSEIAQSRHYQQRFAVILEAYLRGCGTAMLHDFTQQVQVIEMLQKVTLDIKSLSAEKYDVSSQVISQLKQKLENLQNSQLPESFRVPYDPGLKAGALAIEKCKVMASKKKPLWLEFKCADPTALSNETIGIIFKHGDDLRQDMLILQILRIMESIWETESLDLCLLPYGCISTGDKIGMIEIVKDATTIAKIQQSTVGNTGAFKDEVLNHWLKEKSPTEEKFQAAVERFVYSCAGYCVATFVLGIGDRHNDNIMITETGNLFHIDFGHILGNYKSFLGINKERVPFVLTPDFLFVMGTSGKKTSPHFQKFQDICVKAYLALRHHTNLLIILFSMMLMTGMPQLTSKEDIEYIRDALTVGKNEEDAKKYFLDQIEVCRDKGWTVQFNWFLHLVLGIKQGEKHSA

IC50 | Structure (SMILES)
27 nM | COc1cc2c(Oc3ccc(C(=O)c4ccccc4)cc3)c(C(=O)Nc3nn[nH]n3)sc2cc1C
9 nM | COc1cc2c(Oc3ccc(C4CCOCC4)cc3)c(C(=O)Nc3nn[nH]n3)sc2cc1C
56 nM | COc1cc2c(OC[C@H](C)c3ccccc3)c(C(=O)Nc3nn[nH]n3)sc2cc1C
240 nM | COc1cc2sc(C(=O)Nc3nnn[nH]3)c(Oc3ccc(CCCSC4CCCCC4)cc3)c2cc1C
8 nM | COc1cc2c(Oc3ccc(C(O)c4ccccc4)cc3)c(C(=O)Nc3nn[nH]n3)sc2cc1C (configuration not stated)
14 nM | COc1cc2c(Oc3ccc(C4CCN(C(C)=O)CC4)cc3)c(C(=O)Nc3nn[nH]n3)sc2cc1C
2340 nM | COc1cc2c(Oc3ccc(C(C)(C)C)c(C(C)(C)C)c3)c(C(=O)Nc3nn[nH]n3)sc2cc1C
11 nM | COc1cc2c(Oc3ccc(C4CCN(C(=O)C(C)C)CC4)cc3)c(C(=O)Nc3nn[nH]n3)sc2cc1C
325 nM | COc1cc2c(Oc3ccc(C4CC(C)(C)CC(C)(C)C4)cc3)c(C(=O)Nc3nn[nH]n3)sc2cc1C
210 nM | COc1cc2sc(C(=O)Nc3nnn[nH]3)c(OCc3ccc4ccccc4c3)c2cc1OC
20 nM | COc1cc2c(Oc3ccc(C4CCN(C(=O)C(C)(C)NC(=O)OC(C)(C)C)CC4)cc3)c(C(=O)Nc3nn[nH]n3)sc2cc1C
8 nM | COc1cc2c(Oc3ccc(C4CCSCC4)cc3)c(C(=O)Nc3nn[nH]n3)sc2cc1C
8 nM | COc1cc2c(Oc3ccc(C4CCCC(O)C4)cc3)c(C(=O)Nc3nn[nH]n3)sc2cc1C (configuration not stated)
365 nM | COc1cc2c(Oc3ccc(C4CCNCC4)cc3)c(C(=O)Nc3nn[nH]n3)sc2cc1C
715 nM | COc1cc2c(Oc3ccc(C(C4CCCCC4)N4CCCCC4)cc3)c(C(=O)Nc3nn[nH]n3)sc2cc1C (configuration not stated)
388 nM | COc1cc2sc(C(=O)Nc3nn[nH]n3)c(Oc3cccc(C(=N)N)c3)c2cc1C
2610 nM | COc1cc2sc(C(=O)Nc3nnn[nH]3)c(Oc3ccc(CCCSc4ccc(Cl)cc4)cc3)c2cc1C
